Assay results published in paper PMC5803267, “A small molecule inhibitor of Rheb selectively targets mTORC1 signaling” (Nature Communications, 2018).

Tests used:
Jurkat cells = experiment: Cell size assay in Jurkat cells (forward scatter, flow cytometry); assay type: cell-based, human; settings: 48 h incubation, dose-dependent
Protocol: Based on the dependence of cell size on mTORC1 activity, we assessed the effect of NR1 on the size of Jurkat cells, a human T cell line grown in suspension and responsive to mTORC1 inhibition.
Data are plotted as percent decrease in forward scatter. […] Error bars represent standard deviation of the mean of duplicates; graph represents data from one of two separate experiments
For the cell size assay, Jurkat Clone E-61 cells were plated in 96-well plates concurrent with compound. The cells were incubated at 37 °C and 5% CO2 for 48 h. PI stain (Invitrogen #727949) was added at a final concentration of 1 µg mL^−1, and cells were incubated for 15 min at room temperature. FACS analysis was performed; at least 10,000 events were collected for each sample. Viable cells (PI minus) were counted for FSC and SSC, and cell size (as measured by FSC) relative to the DMSO control was calculated.

[1] = test system: T202/Y204pERK1/2 (Ras/ERK pathway) in MCF-7 cells; experiment: EGF-induced T202/Y204pERK1/2 Western blot in MCF-7 cells; assay type: cell-based, human; settings: MCF-7 serum-starved 16 h, compound 90 min, 100 ng mL^−1 EGF
Protocol: MCF-7 cells were serum-starved for 16 h and treated with compound for 90 min before cell lysis and Western blot analysis. For insulin-stimulated cells, 100 nM insulin was added 30 min before cell lysis. For EGF-stimulated cells, 100 ng mL^−1 EGF was added 10 min before cell lysis. c Rap1 activity was detected in lysates loaded in vitro with either GDP or GTPγS and treated with NR1 at the indicated concentrations. This was followed by a subsequent pulldown of GST-RalGDS-RBD. Bound Rap1 was detected by Western blot. d Evaluation of NR1 in a LAM patient-derived cell line (TRI102) under replete and serum-starved conditions. For replete conditions, TRI102 cells were treated for 90 min with compound in DMEM + 10% FBS. For serum-starved conditions, TRI102 cells were serum-starved 16 h and then treated for 90 min with compound prior to cell lysis and Western blot analysis. e HEK293 cells co-transfected with the indicated mTOR constructs and HA-GST-S6K1 were starved of amino acids or treated with NR1. To assess mTORC1 activity, an HA IP was performed and Western blots probed for ^T389pS6K1. f Chronic treatment of PC3 cells with NR1 to evaluate the inhibition of mTORC1 (using ^T389pS6K1) versus mTORC2 (using ^S473pAKT). PC3 cells were treated with compound under replete conditions for 24 h prior to cell lysis and Western blot analysis. […]

[2] = molecular target: T1, Rheb-dependent mTORC1 kinase activity (Homo sapiens, UniProt Q15382); experiment: Rheb-dependent mTORC1 in vitro kinase assay (Rheb-IVK); assay type: biochemical
T1 construct: using full-length Rheb and mTORC1 purified from mammalian cells via a Flag-Raptor handle; made in house; host or cells: HA-GST-Rheb: Freestyle 293-F cells transfected with pRK5-HA-GST-Rheb; mTORC1: HEK-293E cells stably expressing FLAG-Raptor
T1 sequence (Q15382 1-181 limits assumed): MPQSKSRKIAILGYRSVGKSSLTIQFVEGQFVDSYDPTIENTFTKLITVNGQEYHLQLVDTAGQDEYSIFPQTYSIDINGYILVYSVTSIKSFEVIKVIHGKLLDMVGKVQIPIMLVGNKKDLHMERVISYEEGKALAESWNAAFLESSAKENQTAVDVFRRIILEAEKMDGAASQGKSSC

[3] = molecular target: T2, human Rheb protein (1–169) (Homo sapiens, UniProt Q15382); experiment: Isothermal calorimetry (ITC) of binding to Rheb
T2 construct: human Rheb protein (1–169) was purified from BL21 (DE3) Escherichia coli; His-Smt (His-SUMO) (N, cleaved yes); made in house; host or cells: BL21 (DE3) Escherichia coli
T2 sequence (Q15382 1-169): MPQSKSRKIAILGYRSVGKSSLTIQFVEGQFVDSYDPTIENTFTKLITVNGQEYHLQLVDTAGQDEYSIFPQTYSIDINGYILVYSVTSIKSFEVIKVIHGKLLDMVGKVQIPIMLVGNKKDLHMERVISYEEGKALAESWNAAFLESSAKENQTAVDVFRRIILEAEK
Protocol: For the STD-NMR fragment-based screen, HMQC-NMR, ITC, and crystallography, human Rheb protein (1–169) was purified from BL21 (DE3) Escherichia coli using a His-Smt-Rheb expression vector. The cell paste was lysed in lysis buffer (50 mM HEPES pH 7.5, 0.5 M NaCl, 5% Glycerol, 1% CHAPS, EDTA-free protease inhibitor tablets, lysozyme to 1 mg mL^−1, benzonase 250 U), sonicated, and purified on a HiTrap Ni Chelating Column (GE Healthcare) using the following buffer: 50 mM HEPES pH 7.5, 0.5 M NaCl, 5% Glycerol, and imidazole increasing in concentration from 5 mM to 500 mM. The His-Smt tag was cleaved using a Ulp1 enzyme and dialyzed into 50 mM HEPES pH 7.5, 0.5 M NaCl, 5% glycerol. The resultant protein was again purified on a Ni Chelating column to remove the Ulp1 enzyme and His-Smt tag and then purified by size exclusion chromatography on a Sephacryl S-100 26/60 column into the following final buffer: 20 mM NaPhos pH 7.0, 100 mM NaCl, 5 mM MgCl2, 2 mM TCEP. For HMQC NMR, ^15N-labeled Rheb was generated using the same protocol but grown in minimal medium supplemented with ^15N-labeled amino acids.
Supplementary Figure 8. Measurement of binding constant of NR1 with Rheb using isothermal
(1 picture or pasted object on this page, not shown here)

[4] = test system: T389pS6K1 (mTORC1) in PC3 cells; experiment: Chronic treatment of PC3 cells, T389pS6K1 Western blot; assay type: cell-based, human
Protocol: MCF-7 cells were serum-starved for 16 h and treated with compound for 90 min before cell lysis and Western blot analysis. For insulin-stimulated cells, 100 nM insulin was added 30 min before cell lysis. For EGF-stimulated cells, 100 ng mL^−1 EGF was added 10 min before cell lysis. c Rap1 activity was detected in lysates loaded in vitro with either GDP or GTPγS and treated with NR1 at the indicated concentrations. This was followed by a subsequent pulldown of GST-RalGDS-RBD. Bound Rap1 was detected by Western blot. d Evaluation of NR1 in a LAM patient-derived cell line (TRI102) under replete and serum-starved conditions. For replete conditions, TRI102 cells were treated for 90 min with compound in DMEM + 10% FBS. For serum-starved conditions, TRI102 cells were serum-starved 16 h and then treated for 90 min with compound prior to cell lysis and Western blot analysis. e HEK293 cells co-transfected with the indicated mTOR constructs and HA-GST-S6K1 were starved of amino acids or treated with NR1. To assess mTORC1 activity, an HA IP was performed and Western blots probed for ^T389pS6K1. f Chronic treatment of PC3 cells with NR1 to evaluate the inhibition of mTORC1 (using ^T389pS6K1) versus mTORC2 (using ^S473pAKT). PC3 cells were treated with compound under replete conditions for 24 h prior to cell lysis and Western blot analysis.
Accordingly, a hallmark of a selective mTORC1 inhibitor such as NR1 would be the lack of mTORC2 inhibition irrespective of the duration of treatment. PC3 cells are sensitive to mTORC2 inhibition with long-term rapamycin treatment. Indeed, upon treatment with rapamycin for 24 h, both ^T389pS6K1 and ^S473pAKT were lowered, indicating inhibitory effects on both mTORC1 and mTORC2, respectively.
For Western-based signaling assays, cells were treated for either 90 min or 2–24 h as indicated before lysis, normalization, and Western analysis. Cells were lysed in Triton lysis buffer: 1% Triton X-100, 50 mM HEPES pH 7.4, 100 mM NaCl, 2 mM EDTA, 10 mM β-glycerophosphate, 10 mM Na-pyrophosphate, protease inhibitor.

CN(C)C(=O)c1ccc(Cn2c(C(=O)O)cc3c(Br)cc(Sc4ccc(Cl)c(Cl)c4)cc32)cc1 [NR1, 4-bromo-6-(3,4-dichlorophenylthio)-1-(4-(dimethylcarbamoyl)benzyl)-1H-indole-2-carboxylic acid]
size of Jurkat cells (Jurkat cells): effectively reduced the size | EGF-induced phosphorylation of T202/Y204pERK1/2 [1]: did not inhibit | IC50 [2]: 2100 nM | Kd [3]: 1500 nM | ΔH of binding [3]: –0.315 kcal mol^−1 | T389pS6K1 after 24 h treatment ([4]; PC3, replete, 24 h, NR1 30 µM, rapamycin 100 nM): potent inhibition | pS6K1 over time course ([4]; PC3, time points 2 h through 24 h): inhibits pS6K1
